According to patent publication US20070191291A1, “Compound antibacterial drugs comprising n-acetyl-d-glucosamine” (priority 2003, published 2007):
Like-named read-outs stand apart in the source and are kept apart here.

Columns and labels:
Bacillus cereus = assay: Test Example 2: preventing formation of bacterial CGC in vitro (K-B method); format: cell-based
Description: (§1) E. coli (No. 33310, purchased from Chengdu Institute of Biological Products, the Ministry of Public Health) was used in the tests. Grid design was performed by using antibiotic with different concentrations and N-acetyl-D-glucosamine having an amount of from 10 mg to 300 mg. Streak plates were conducted separately, and K-B method was employed for drugs. Colonies at marginal part of drug inhibition zone were picked and were observed under microscope. If cell length was more than 50 μm and cell number was more than 5 in each visual field, it was deemed as CGC positive and was marked with “+”; while if cell length was not greater than 50 μm and cell number was within the range from 0 to 4 in each visual field, it was deemed as CGC negative and was marked with “−”. At this time, the ratio of two substances was called “effective ratio”.
(§2) Effects tests of compound preparation comprising N-acetyl-D-glucosamine and antibiotics for preventing the formation of bacterial CGC in vitro.
(§3) The tests were carried out in vitro, wherein gram-negative amphimicrodes, gram-negative anaerobes and gram-positive aerobes were separately coated on streak plates, test drugs and control drugs were separately dissolved with same volume of sterile water for injection, 10 μl of each drug was used for preparing drug-sensitive paper, K-B method was employed in the tests of drugs, and the inhibition situations of CGC formation were observed.

Bacillus proteus = assay: as above; format: cell-based
Description: as §1, §2, §3

Bacteroides fragilis = assay: as above; format: cell-based
Description: as §1, §2, §3

Citro Bacter = assay: as above; format: cell-based
Description: as §1, §2, §3

Diphtheroid bacillus = assay: as above; format: cell-based
Description: as §1, §2, §3

E. coli = assay: as above; format: cell-based
Description: as §1, §2, §3

Klebsiella = assay: as above; format: cell-based
Description: as §1, §2, §3

Listeria = assay: as above; format: cell-based
Description: as §1, §2, §3

Nucleic Acid Bacter = assay: as above; format: cell-based
Description: as §1, §2, §3

[1] = system: rats infected and not infected by Bacillus typhi murium; format: in vivo, Wistar rats; conditions: rats infected or not by Bacillus typhi murium, consecutive week, 15 rats per group
[2] = system: irritable bowel syndrome (IBS) caused by bacterial CGC; assay: Test Example 5: preventing irritable bowel syndrome (IBS) caused by bacterial CGC; format: in vivo, rats; conditions: for CGCs in the rat stools after one week of drug withdrawal / CGCs in the stools of the rats: rats, effective dosage for consecutive 10 days, 30 rats per group; for CGCs in the stools of the rats: stools observed during administration and within 1 week after drug withdrawal
From the text: On this basis, the rats were subjected to stimulations such as electric stimulation, intragastric administration with fructus zanthoxyli water, cold, constraint etc. in order to induce IBS, and the incidence rates of IBS of two groups were observed.

[3] = compound injection 100 mg N-acetyl-D-glucosamine + 300 mg kanamycin, control kanamycin same dose
[4] = first of three values given respectively: electric stimulation
[5] = second of three values given respectively: intragastric administration with fructus zanthoxyli water
[6] = third of three values given respectively: cold, constraint etc.
[7] = compound preparation N-acetyl-D-glucosamine (100 mg) and lincomycin (400 mg), control lincomycin (400 mg)
[8] = compound preparation N-acetyl-D-glucosamine (50 mg) and tetracycline (150 mg), control tetracycline (150 mg)

Q: With NC[C@H]1O[C@H](O[C@H]2[C@H](O)[C@@H](O[C@H]3O[C@H](CO)[C@@H](O)[C@H](N)[C@H]3O)[C@H](N)C[C@@H]2N)[C@H](O)[C@@H](O)[C@@H]1O [Kanamycin, kanamycin] as the compound, how does the CGC formation (Bacillus cereus; [3]) read?
A: The CGC formation was “+ (If cell length was more than 50 μm and cell number was more than 5 in each visual field, it was deemed as CGC positive and was marked with “+”)”.

Q: What about the CGC formation (Bacillus proteus; [3]) of the same compound?
A: Its CGC formation is “+ (If cell length was more than 50 μm and cell number was more than 5 in each visual field, it was deemed as CGC positive and was marked with “+”)”.

Q: What about the CGC formation (Bacteroides fragilis; [3]) of the same compound?
A: The CGC formation was “+ (If cell length was more than 50 μm and cell number was more than 5 in each visual field, it was deemed as CGC positive and was marked with “+”)”.

Q: What about the CGC formation (Citro Bacter; [3]) of the same compound?
A: Its CGC formation is “+ (If cell length was more than 50 μm and cell number was more than 5 in each visual field, it was deemed as CGC positive and was marked with “+”)”.

Q: What about the CGC formation (Diphtheroid bacillus; [3]) of the same compound?
A: Its CGC formation is “+ (If cell length was more than 50 μm and cell number was more than 5 in each visual field, it was deemed as CGC positive and was marked with “+”)”.

Q: What about the CGC formation (E. coli; [3]) of the same compound?
A: The CGC formation was “+ (If cell length was more than 50 μm and cell number was more than 5 in each visual field, it was deemed as CGC positive and was marked with “+”)”.

Q: And the CGC formation (Klebsiella; [3])?
A: The CGC formation was “+ (If cell length was more than 50 μm and cell number was more than 5 in each visual field, it was deemed as CGC positive and was marked with “+”)”.

Q: And the CGC formation (Listeria; [3])?
A: Its CGC formation is “+ (If cell length was more than 50 μm and cell number was more than 5 in each visual field, it was deemed as CGC positive and was marked with “+”)”.

Q: And the CGC formation (Nucleic Acid Bacter; [3])?
A: Its CGC formation is “+ (If cell length was more than 50 μm and cell number was more than 5 in each visual field, it was deemed as CGC positive and was marked with “+”)”.

Q: What about the “positive rates of stool CGC and intestinal mucosa CGC” value (from here on “positive rates”) ([1]; N-acetyl-D-glucosamine (100 mg)+kanamycin (200 mg) vs only kanamycin) of the same compound?
A: Its value is 100%.

Q: What about the “incidence rate of IBS” value [2, 4] of the same compound?
A: The value was 33%.

Q: And the “incidence rate of IBS” value [2, 5]?
A: Its value is 33%.

Q: And the “incidence rate of IBS” value [2, 6]?
A: The value was 33%.

Q: For CCC[C@@H]1C[C@@H](C(=O)N[C@@H]([C@H]2O[C@H](SC)[C@H](O)[C@@H](O)[C@H]2O)[C@@H](C)O)N(C)C1 [Lincomycin, lincomycin], which CGC formation (Bacillus cereus; [7]) is on record?
A: The CGC formation was “+ (If cell length was more than 50 μm and cell number was more than 5 in each visual field, it was deemed as CGC positive and was marked with “+”)”.

Q: And the CGC formation (Bacillus proteus; [7])?
A: The CGC formation was “+ (If cell length was more than 50 μm and cell number was more than 5 in each visual field, it was deemed as CGC positive and was marked with “+”)”.

Q: What about the CGC formation (Bacteroides fragilis; [7]) of the same compound?
A: The CGC formation was “+ (If cell length was more than 50 μm and cell number was more than 5 in each visual field, it was deemed as CGC positive and was marked with “+”)”.

Q: And the CGC formation (Citro Bacter; [7])?
A: Its CGC formation is “+ (If cell length was more than 50 μm and cell number was more than 5 in each visual field, it was deemed as CGC positive and was marked with “+”)”.

Q: And the CGC formation (Diphtheroid bacillus; [7])?
A: The CGC formation was “+ (If cell length was more than 50 μm and cell number was more than 5 in each visual field, it was deemed as CGC positive and was marked with “+”)”.

Q: What about the CGC formation (E. coli; [7]) of the same compound?
A: Its CGC formation is “+ (If cell length was more than 50 μm and cell number was more than 5 in each visual field, it was deemed as CGC positive and was marked with “+”)”.

Q: And the CGC formation (Klebsiella; [7])?
A: Its CGC formation is “+ (If cell length was more than 50 μm and cell number was more than 5 in each visual field, it was deemed as CGC positive and was marked with “+”)”.

Q: And the CGC formation (Listeria; [7])?
A: Its CGC formation is “+ (If cell length was more than 50 μm and cell number was more than 5 in each visual field, it was deemed as CGC positive and was marked with “+”)”.

Q: And the CGC formation (Nucleic Acid Bacter; [7])?
A: The CGC formation was “+ (If cell length was more than 50 μm and cell number was more than 5 in each visual field, it was deemed as CGC positive and was marked with “+”)”.

Q: What about the “positive rates” value ([1]; N-acetyl-D-glucosamine (100 mg)+lincomycin (400 mg) vs only lincomycin) of the same compound?
A: Its value is 100%.

Q: What about the “incidence rate of IBS” value [2, 4] of the same compound?
A: Its value is 33%.

Q: And the “CGCs in the rat stools after one week of drug withdrawal” value [2]?
A: Its value is “still present”.

Q: What about the “CGCs in the stools of the rats” value [2] of the same compound?
A: Its value is “a large amount of CGCs appeared”.

Q: What about the “incidence rate of IBS” value [2, 5] of the same compound?
A: Its value is 33%.

Q: What about the “incidence rate of IBS” value [2, 6] of the same compound?
A: The value was 33%.

Q: CN(C)C1C(O)=C(C(N)=O)C(=O)C2(O)C(O)=C3C(=O)c4c(O)cccc4C(C)(O)C3CC12 (stereo not shown) [Tetracyclin, tetracycline] was tested. Which CGC formation (Bacillus cereus; [8]) did it give?
A: Its CGC formation is “+ (If cell length was more than 50 μm and cell number was more than 5 in each visual field, it was deemed as CGC positive and was marked with “+”)”.

Q: What about the CGC formation (Bacillus proteus; [8]) of the same compound?
A: The CGC formation was “+ (If cell length was more than 50 μm and cell number was more than 5 in each visual field, it was deemed as CGC positive and was marked with “+”)”.

Q: What about the CGC formation (Bacteroides fragilis; [8]) of the same compound?
A: The CGC formation was “+ (If cell length was more than 50 μm and cell number was more than 5 in each visual field, it was deemed as CGC positive and was marked with “+”)”.

Q: And the CGC formation (Citro Bacter; [8])?
A: The CGC formation was “+ (If cell length was more than 50 μm and cell number was more than 5 in each visual field, it was deemed as CGC positive and was marked with “+”)”.

Q: And the CGC formation (Diphtheroid bacillus; [8])?
A: Its CGC formation is “+ (If cell length was more than 50 μm and cell number was more than 5 in each visual field, it was deemed as CGC positive and was marked with “+”)”.

Q: And the CGC formation (E. coli; [8])?
A: The CGC formation was “+ (If cell length was more than 50 μm and cell number was more than 5 in each visual field, it was deemed as CGC positive and was marked with “+”)”.

Q: What about the CGC formation (Klebsiella; [8]) of the same compound?
A: The CGC formation was “+ (If cell length was more than 50 μm and cell number was more than 5 in each visual field, it was deemed as CGC positive and was marked with “+”)”.

Q: What about the CGC formation (Listeria; [8]) of the same compound?
A: The CGC formation was “+ (If cell length was more than 50 μm and cell number was more than 5 in each visual field, it was deemed as CGC positive and was marked with “+”)”.

Q: What about the CGC formation (Nucleic Acid Bacter; [8]) of the same compound?
A: The CGC formation was “+ (If cell length was more than 50 μm and cell number was more than 5 in each visual field, it was deemed as CGC positive and was marked with “+”)”.

Q: What about the “positive rates” value ([1]; N-acetyl-D-glucosamine (150 mg)+tetracycline (150 mg) vs only tetracycline) of the same compound?
A: The value was 100%.

Q: And the “incidence rate of IBS” value [2, 4]?
A: The value was 33%.

Q: What about the “CGCs in the rat stools after one week of drug withdrawal” value [2] of the same compound?
A: Its value is “still present”.

Q: What about the “CGCs in the stools of the rats” value [2] of the same compound?
A: Its value is “a large amount of CGCs appeared”.

Q: And the “incidence rate of IBS” value [2, 5]?
A: Its value is 33%.

Q: What about the “incidence rate of IBS” value [2, 6] of the same compound?
A: Its value is 33%.
